This experiment has as its system 521955-158-R2-J5-PDC complex spheroid growth. As to the kind of experiment: Anticancer human tumor 521955-158-R2-J5-PDC patient-derived pancreatic carcinoma cell line growth inhibition [AhR]. As to conditions: for viability, T/C: stronger effect = lower value. The source says:
Multicellular complex tumor spheroid response to aryl hydrocarbon receptor antagonists in combination with a variety of drugs and investigational agents in selected tumor cell lines
The current study was undertaken to assess response to aryl hydrocarbon receptor antagonists in combination with standard-of-care drugs and investigational agents in solid tumor complex spheroid models. Complex spheroids include a stromal component modeled by human endothelial cells (HUVEC) and fibroblasts modeled by human mesenchymal stem cells (MSCs). The concentration ranges selected for each drug and investigational agent were based upon clinically achievable concentrations if the clinical Cmax of the agent was known.
Compounds. The drugs and investigational agents: BAY 2416964 (NSC825713), GNF351 (NSC835774), CH-223191 (NSC835775), CPI-455 (NSC825282), aza-TdCyd (NSC777586), decitabine (NSC127716), belinostat (NSC758774), entinostat (NSC756642), pevonedistat (NSC761192), tazemetostat (NSC777109), talazoparib (NSC765396), olaparib (NSC753686), selinexor (NSC780203), nedisertib (M3814, NSC802822), bortezomib (NSC756655), venetoclax (NSC766270), doxorubicin (NSC123127), elimusertib (BAY189344, NSC800525), ceralasertib (AZD6738, NSC777638), TAK-243 (NSC785004), alisertib (NSC759677), etoposide (NSC141540), topotecan (NSC609699), eribulin (NSC707389), gemcitabine (NSC613327), carboplatin (NSC241240), cisplatin (NSC119875), and SN-38 (NSC673596) were obtained from the National Cancer Institute (NCI) Developmental Therapeutics Program Chemical Repository (32). The FDA-approved anticancer drug set is available from the Developmental Therapeutics Program at https://dtp.cancer.gov/organization/dscb/obtaining/available plates.htm. […] The stock solutions were prepared in dimethyl sulfoxide (DMSO, Sigma-Aldrich, St. Louis, MO, cat. D2650), except for the platinum compounds which were prepared in saline (Quality Biological, Gaithersburg, MD, cat. 114-055-101), at 800-fold the tested concentration and stored at -70 degrees C prior to their use. All drugs and investigational agents were tested over a range starting from a high concentration at or near the clinical Cmax and decreasing in half-log increments. If the clinical Cmax for an agent had not been determined, the highest concentration tested was 10 microM (Table 1).
Cell Culture. All cells were maintained in an incubator at 37 degrees C and 5% CO2 with 95% humidity. The PDC lines were cultured according to standard operating procedures established by the NCI PDMR (https://pdmr.cancer.gov). Briefly, all PDCs were thawed and cultured in Matrigel-coated flasks prepared with a working solution of 1X Ham's F-12 nutrient mix, without supplementation (Invitrogen, Waltham, MA, cat. 11765054), 100 U/mL penicillin-streptomycin (Invitrogen, cat. 15140122), and 2.5% Matrigel (Corning Inc., Corning, NY, cat. 354248) for the first three passages. All PDCs were cultured in complete DMEM/F-12 media containing advanced DMEM/F-12 (Invitrogen, cat. 12634028), 4.9% defined fetal bovine serum, heat inactivated (HyClone Laboratories Inc., Logan, UT, cat. SH30070.03HI), 389 ng/mL hydrocortisone (Sigma-Aldrich, cat. H4001), 9.7 ng/mL human EGF recombinant protein (Invitrogen, cat. PHG0313), 23.4 microg/mL adenine (Sigma-Aldrich, cat. A2786), 97.3 U/mL penicillin-streptomycin (Invitrogen, cat. 15140122), 1.9 mM L-glutamine (Invitrogen, cat. 25030081), and 9.7 microM Y-27632 dihydrochloride (Tocris Bioscience, Bristol, United Kingdom, cat. 1254). The PDCs were cultured in complete DMEM/F12 media without 10 microM Y-27632 dihydrochloride for at least two passages prior to the screen. The established cell lines NCI-H1341 and […] were cultured in DMEM/F-12, HEPES (Invitrogen, cat. 11330032), 5% defined fetal bovine serum (HyClone Laboratories Inc., cat. SH30070.03), ITS premix universal culture supplement [insulin (5 microg/mL), transferrin (5 microg/mL), and selenious acid (5 ng/mL)] […]

Values joined by “and” are separate entries in the source; they are usually repeats but may differ in a detail not shown here. Equal values may be shown once.
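For viability, T/C in this document: spheroids mix tumor cells with HUVEC endothelium and human MSC stroma; luminescence taken as viability surrogate after a week of drug exposure.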

Regarding `Nc1ccccc1NC(=O)c1ccc(CNC(=O)OCc2cccnc2)cc1` + Cc1ccccc1N=Nc1ccc(NC(=O)c2ccnn2C)c(C)c1, the half-inhibitory concentration (IC50) runs as follows: (curve of first compound, second compound 0.1 µM) 5.03 µM; (curve of first compound, second compound 0.316 µM) 5.29 µM; (curve of first compound, second compound 1 µM) 5.68 µM; (curve of first compound, second compound 3.16 µM) 6.93 µM; (curve of first compound, second compound 10 µM) 7.2 µM. Besides, the viability, T/C reads like this: (second compound 0.1 µM, first compound 0.0316 µM) 121%; (second compound 0.1 µM, first compound 0.1 µM) 129%; (second compound 0.1 µM, first compound 0.316 µM) 130%; (second compound 0.1 µM, first compound 1 µM) 104%; (second compound 0.1 µM, first compound 3.16 µM) 64.6%; (second compound 0.1 µM, first compound 10 µM) 29.6%. In addition, the viability, T/C (second compound 0.316 µM, first compound 0.0316 µM) was 95.2%; the viability, T/C (second compound 0.316 µM, first compound 0.1 µM) was 137%; the viability, T/C (second compound 0.316 µM, first compound 0.316 µM) was 147%; the viability, T/C (second compound 0.316 µM, first compound 1 µM) was 109%; the viability, T/C (second compound 0.316 µM, first compound 3.16 µM) is 69.8%; the viability, T/C (second compound 0.316 µM, first compound 10 µM) is 26.4%. Also, the viability, T/C was 135% (second compound 1 µM, first compound 0.0316 µM); 154% (second compound 1 µM, first compound 0.1 µM); 155% (second compound 1 µM, first compound 0.316 µM); 116% (second compound 1 µM, first compound 1 µM); 67.5% (second compound 1 µM, first compound 3.16 µM); 34.4% (second compound 1 µM, first compound 10 µM). For the same molecule, the viability, T/C runs as follows: (second compound 3.16 µM, first compound 0.0316 µM) 141%; (second compound 3.16 µM, first compound 0.1 µM) 164%; (second compound 3.16 µM, first compound 0.316 µM) 154%; (second compound 3.16 µM, first compound 1 µM) 131%; (second compound 3.16 µM, first compound 3.16 µM) 71.4%; (second compound 3.16 µM, first compound 10 µM) 40%. The viability, T/C runs as follows: (second compound 10 µM, first compound 0.0316 µM) 165%; (second compound 10 µM, first compound 0.1 µM) 168%; (second compound 10 µM, first compound 0.316 µM) 152%; (second compound 10 µM, first compound 1 µM) 129%; (second compound 10 µM, first compound 3.16 µM) 78.1%; (second compound 10 µM, first compound 10 µM) 38.7%.

Consider `COc1ccc([C@@H](O)c2cc(-c3ncnc4cc(N5CCOCC5)ccc34)c(F)cc2Cl)nn1`, for which the viability, T/C by setting is: (compound 0.0316 µM) 103% and 74.5% and 83%; (compound 0.1 µM) 98.5% and 84.4% and 87.8%; (compound 0.316 µM) 104% and 83.6% and 80.7%; (compound 1 µM) 100% and 66.2% and 81.5%; (compound 3.16 µM) 75.2% and 63.6% and 64.8%; (compound 10 µM) 52% and 43.6% and 40.8%. Moreover, the IC50 (curve of compound) was > 10 µM and 6.7 µM and 6.43 µM.

Take `Nc1ccn(C2OC(CO)C(O)C2(F)F)c(=O)n1` (stereo unspecified): the viability, T/C is, setting by setting: (compound 0.0316 µM) 73.8% and 54.7% and 44.6%; (compound 0.1 µM) 79.4% and 73.8% and 60.9%; (compound 0.316 µM) 62.2% and 61% and 53.9%; (compound 1 µM) 39.4% and 28.6% and 24.9%; (compound 3.16 µM) 29.8% and 15.9% and 17.8%; (compound 10 µM) 28.7% and 13.2% and 15.3%. Besides, the IC50 (curve of compound) is 0.59 µM and 0.472 µM and 0.359 µM.

For `Nc1ncn(C2CC(O)C(CO)S2)c(=O)n1` (stereo unspecified), the viability, T/C is 104% and 88.3% and 99.6% (compound 0.000949 µM); 100% and 82.5% and 108% (compound 0.003 µM); 97.7% and 84.6% and 93% (compound 0.00949 µM); 93.5% and 74.3% and 75.1% (compound 0.03 µM); 98.7% and 75.1% and 73.7% (compound 0.0949 µM); 91.9% and 72.8% and 71.8% (compound 0.3 µM). Besides, the IC50 (curve of compound) is above 0.3 µM.

By IC50 is commonly meant the concentration that gives 50% inhibition. A word on the viability, T/C: it is the ratio of treated to control.

These data come from PubChem BioAssay AID1918998 (Molecular Pharmacology Branch, DTP, NCI, 2023).
